From patent US8785594B2, “Glycoproteins and glycosylated cells and a method for the preparation of the same” (Glycom A/S, priority 2007, dated 2014)

Tests used:
B16.BL6 melanoma cells [1] = assay: Cell concentration and viability after conjugation, trypan blue (Example 14); type: cell-based
Experimental: (§1) Nine flasks (300 cm^2) (TPP, Trasadingen Switzerland) of confluent B16.BL6 melanoma cells grown in DMEM containing 10% fetal calf serum (without P/S) at 37.5° C. in 5% CO2 were used for this experiment. Growth medium was removed from the cells and 20 mL of HBSS containing D-glucose (without Mg^2+ and Ca^2+) (Gibco, Invitrogen, Taastrup, Denmark) was added to the cells and immediately removed again. Another 10 mL of HBSS containing D-glucose (without Mg^2+ and Ca^2+) was added and removed, before cells were harvested with Cell Dissociation Solution C5914 (Sigma-aldrich, Saint Louis, Mo.) (10 mL per flask) and transferred to 50 mL tubes (TPP, Trasadingen Switzerland). The cells were centrifuged for 3 minutes at 300 G at 20° C. and the supernatant was discarded. Subsequently, cells were washed twice in HBSS containing D-glucose (without Mg^2+ and Ca^2+), centrifuged as above and resuspended in HBSS containing D-glucose (without Mg^2+ and Ca^2+). The concentration of the cell suspension was determined.
Radioactive labelled and regular trisaccharide probe was dissolved in HBSS containing D-glucose (without Mg^2+ and Ca^2+) (Gibco Invitrogen, Taastrup, Denmark) and passed through sterile filters (0.2 μm Supor® Acrodisc® 13, Gelman Sciences, Ann Arbor, Mich.). Four different concentrations of each “Glycom conjugate” (25 mg, 5 mg, 1 mg and 0.1 mg) were made. Twelve flasks (150 cm^2) (TPP, Trasadingen Switzerland) were prepared each containing a total of 10×10^6 B16.BL6 cells. The trisaccharide probe was added and the total volume was adjusted to 20 mL with HBSS containing D-glucose (without Mg^2+ and Ca^2+). The cells were incubated with the “Glycom conjugate” for 1.5 hours at 37° C. After conjugation, the supernatant from each flask was transferred to separate 50 mL tubes (TPP, Trasadingen Switzerland). The cells were harvested with Cell Dissociation Solution C5914 (5 mL per flask) (Sigma-Aldrich, Saint Louis, Mo. and transferred to the 50 mL tubes containing the supernatant. The cells were centrifuged for 3 minutes at 300 G at 20° C. and resuspended in 5 mL of PBS (without Mg^2+ and Ca^2+). This was repeated 3 times before cell concentration and viability was determined by microscopical evaluation of trypan blue stained cell samples.

B16.BL6 melanoma cells [2] = assay: Cell concentration and viability after conjugation, trypan blue (Example 15); type: cell-based
Experimental: as §1, with “Twelve flasks” for “Nine flasks”, “CO2 was” for “CO2 were”
Radioactive labelled and regular alpha-Gal trisaccharide-carbamate (9) probe (labeled on the cyclic carbamate carbon) was dissolved in HBSS containing D-glucose (without Mg^2+ and Ca^2+) (Gibco Invitrogen, Taastrup, Denmark) and passed through sterile filters (0.2 μm Supor® Acrodisc® 13, Gelman Sciences, Ann Arbor, Mich.). Eight different concentrations of radioactive labelled alpha-Gal trisaccharide-carbamate (9) (1 μg, 10 μg, 100 μg, 1 mg, 5 mg, 10 mg, 15 mg and 20 mg) and […] concentrations of regular “Glycom conjugate” (10 μg, 100 μg, 1 mg, 5 mg, 10 mg, 15 mg and 20 mg) were used. Twelve flasks (300 cm^2) (TPP, Trasadingen Switzerland) were prepared, each containing 10×10^6 B16.BL6 cells, for conjugation with the radioactive labelled trisaccharide probe, and 8 flasks (150 cm^2) (TPP, Trasadingen Switzerland) were prepared, each containing 5×10^6 B16.BL6 cells, for conjugation with the non-radioactive conjugate. The Glycom conjugate was added and the total volume was adjusted with HBSS containing D-glucose (without Mg^2+ and Ca^2+) so that each large flask (300 cm^2) contained a final volume of 20 mL and each medium flask (150 cm^2) contained a final volume of 10 mL. Cells were incubated with the “Glycom conjugate” for 1.5 hours at 37° C. After conjugation, the supernatant from each flask was transferred to separate 50 mL tubes (TPP, Trasadingen Switzerland). The cells were harvested with Cell Dissociation Solution (10 mL per large flask and 5 mL per medium flask) (Sigma-aldrich, Saint Louis, Mo.) and transferred to the 50 mL tubes containing the supernatant. The cells were centrifuged for 5 minutes at 300 G at 20° C. and resuspended in 5 mL of PBS (without Mg^2+ and Ca^2+). […]

[3] = radioactive labelled conjugate 0.1 mg
[4] = radioactive labelled conjugate 1 mg
[5] = radioactive labelled conjugate 5 mg, cells from supernatant only
[6] = radioactive labelled conjugate 25 mg, attached cells only
[7] = reaction C, radioactive labelled conjugate 20 mg, 10×10^6 cells, 1.5 hours, after washing 4 times
[8] = reaction D, radioactive labelled conjugate 15 mg
[9] = reaction E, radioactive labelled conjugate 10 mg
[10] = reaction F, radioactive labelled conjugate 5 mg
[11] = reaction G, radioactive labelled conjugate 1 mg
[12] = reaction H, radioactive labelled conjugate 100 μg
[13] = reaction I, radioactive labelled conjugate 10 μg
[14] = reaction J, radioactive labelled conjugate 1 μg
[15] = regular conjugate 25 mg, 10×10^6 cells, 1.5 hours
[16] = reaction 2, regular conjugate 20 mg, 5×10^6 cells, 1.5 hours, after washing once
[17] = reaction 3, regular conjugate 15 mg
[18] = reaction 4, regular conjugate 10 mg
[19] = reaction 5, regular conjugate 5 mg
[20] = reaction 6, regular conjugate 1 mg
[21] = reaction 7, regular conjugate 100 μg
[22] = reaction 8, regular conjugate 10 μg

In the case of `O=[13C]1N[C@@H]2O[C@H](CO)[C@@H](O[C@@H]3O[C@H](CO)[C@H](O)[C@H](O[C@H]4O[C@H](CO)[C@H](O)[C@H](O)[C@H]4O)[C@H]3O)[C@H](O)[C@H]2O1` [radioactive labelled conjugate], the Cell concentration (B16.BL6 melanoma cells [1]; [3]) is reported as 13.8 × 10^5, the Cells harvested (B16.BL6 melanoma cells [1]; [3]) is reported as 6.9 × 10^6 and the “Cells harvested (percent)” value (B16.BL6 melanoma cells [1]; [3]) is reported as 69%. The Viability (B16.BL6 melanoma cells [1]; [3]) was 91.3%, the Cell concentration (B16.BL6 melanoma cells [1]; [4]) was 14.8 × 10^5 and the Cells harvested (B16.BL6 melanoma cells [1]; [4]) was 7.4 × 10^6. For the same molecule, the “Cells harvested (percent)” value (B16.BL6 melanoma cells [1]; [4]) was 74%, the Viability (B16.BL6 melanoma cells [1]; [4]) was 93.2% and the Cell concentration (B16.BL6 melanoma cells [1]; [5]) was 10.8 × 10^5. For the same molecule, the Cells harvested (B16.BL6 melanoma cells [1]; [5]) was 5.4 × 10^6, the “Cells harvested (percent)” value (B16.BL6 melanoma cells [1]; [5]) was 54% and the Viability (B16.BL6 melanoma cells [1]; [5]) was 81.5%. For the same molecule, the Cell concentration (B16.BL6 melanoma cells [1]; [6]) was 2.0 × 10^5, the Cells harvested (B16.BL6 melanoma cells [1]; [6]) was 1.0 × 10^6 and the “Cells harvested (percent)” value (B16.BL6 melanoma cells [1]; [6]) was 10%. The Viability (B16.BL6 melanoma cells [1]; [6]) was 90.0%, the Cell concentration (B16.BL6 melanoma cells [2]; [7]) was 6.1 × 10^6 cells/mL and the Cells harvested (B16.BL6 melanoma cells [2]; [7]) was 2.7 × 10^6. The “Cells harvested (percent)” value (B16.BL6 melanoma cells [2]; [7]) was 27.5%, the Viability (B16.BL6 melanoma cells [2]; [7]) was 82.0% and the Cell concentration (B16.BL6 melanoma cells [2]; [8]) was 4.3 × 10^6 cells/mL. For the same molecule, the Cells harvested (B16.BL6 melanoma cells [2]; [8]) was 1.9 × 10^6, the “Cells harvested (percent)” value (B16.BL6 melanoma cells [2]; [8]) was 19.4% and the Viability (B16.BL6 melanoma cells [2]; [8]) was 88.9%. The Cell concentration (B16.BL6 melanoma cells [2]; [9]) was 12 × 10^6 cells/mL, the Cells harvested (B16.BL6 melanoma cells [2]; [9]) was 5.4 × 10^6 and the “Cells harvested (percent)” value (B16.BL6 melanoma cells [2]; [9]) was 54.0%. The Viability (B16.BL6 melanoma cells [2]; [9]) was 86.7%, the Cell concentration (B16.BL6 melanoma cells [2]; [10]) was 5.2 × 10^6 cells/mL and the Cells harvested (B16.BL6 melanoma cells [2]; [10]) was 2.3 × 10^6. For the same molecule, the “Cells harvested (percent)” value (B16.BL6 melanoma cells [2]; [10]) was 23.4%, the Viability (B16.BL6 melanoma cells [2]; [10]) was 82.7% and the Cell concentration (B16.BL6 melanoma cells [2]; [11]) was 5.9 × 10^6 cells/mL. The Cells harvested (B16.BL6 melanoma cells [2]; [11]) was 2.7 × 10^6, the “Cells harvested (percent)” value (B16.BL6 melanoma cells [2]; [11]) was 26.6% and the Viability (B16.BL6 melanoma cells [2]; [11]) was 91.5%. The Cell concentration (B16.BL6 melanoma cells [2]; [12]) was 3.8 × 10^6 cells/mL, the Cells harvested (B16.BL6 melanoma cells [2]; [12]) was 1.7 × 10^6 and the “Cells harvested (percent)” value (B16.BL6 melanoma cells [2]; [12]) was 17.1%. For the same molecule, the Viability (B16.BL6 melanoma cells [2]; [12]) was 81.6%, the Cell concentration (B16.BL6 melanoma cells [2]; [13]) was 6.2 × 10^6 cells/mL and the Cells harvested (B16.BL6 melanoma cells [2]; [13]) was 2.8 × 10^6. The “Cells harvested (percent)” value (B16.BL6 melanoma cells [2]; [13]) was 27.9%, the Viability (B16.BL6 melanoma cells [2]; [13]) was 82.3% and the Cell concentration (B16.BL6 melanoma cells [2]; [14]) was 5.0 × 10^6 cells/mL. For the same molecule, the Cells harvested (B16.BL6 melanoma cells [2]; [14]) was 2.3 × 10^6, the “Cells harvested (percent)” value (B16.BL6 melanoma cells [2]; [14]) was 22.5% and the Viability (B16.BL6 melanoma cells [2]; [14]) was 84.0%.
With `O=C1N[C@@H]2O[C@H](CO)[C@@H](O[C@@H]3O[C@H](CO)[C@H](O)[C@H](O[C@H]4O[C@H](CO)[C@H](O)[C@H](O)[C@H]4O)[C@H]3O)[C@H](O)[C@H]2O1` [Compound 9, alpha-Gal trisaccharide-carbamate] the Cell concentration (B16.BL6 melanoma cells [1]; regular conjugate 0.1 mg) was 7.4 × 10^5, the Cells harvested (B16.BL6 melanoma cells [1]; regular conjugate 0.1 mg) was 3.7 × 10^6 and the “Cells harvested (percent)” value (B16.BL6 melanoma cells [1]; regular conjugate 0.1 mg) was 37%. For the same molecule, the Viability (B16.BL6 melanoma cells [1]; regular conjugate 0.1 mg) was 67.6%, the Cell concentration (B16.BL6 melanoma cells [1]; regular conjugate 1 mg) was 13.4 × 10^5 and the Cells harvested (B16.BL6 melanoma cells [1]; regular conjugate 1 mg) was 6.7 × 10^6. For the same molecule, the “Cells harvested (percent)” value (B16.BL6 melanoma cells [1]; regular conjugate 1 mg) was 67%, the Viability (B16.BL6 melanoma cells [1]; regular conjugate 1 mg) was 79.1% and the Cell concentration (B16.BL6 melanoma cells [1]; regular conjugate 5 mg) was 7.0 × 10^5. For the same molecule, the Cells harvested (B16.BL6 melanoma cells [1]; regular conjugate 5 mg) was 3.5 × 10^6, the “Cells harvested (percent)” value (B16.BL6 melanoma cells [1]; regular conjugate 5 mg) was 35% and the Viability (B16.BL6 melanoma cells [1]; regular conjugate 5 mg) was 91.4%. For the same molecule, the Cell concentration (B16.BL6 melanoma cells [1]; [15]) was 9.0 × 10^5, the Cells harvested (B16.BL6 melanoma cells [1]; [15]) was 4.5 × 10^6 and the “Cells harvested (percent)” value (B16.BL6 melanoma cells [1]; [15]) was 45%. For the same molecule, the Viability (B16.BL6 melanoma cells [1]; [15]) was 77.8%, the Cell concentration (B16.BL6 melanoma cells [2]; [16]) was 4.2 × 10^5 cells/mL and the Cells harvested (B16.BL6 melanoma cells [2]; [16]) was 1.1 × 10^6. For the same molecule, the “Cells harvested (percent)” value (B16.BL6 melanoma cells [2]; [16]) was 21%, the Viability (B16.BL6 melanoma cells [2]; [16]) was 85.7% and the Cell concentration (B16.BL6 melanoma cells [2]; [17]) was 6.0 × 10^5 cells/mL. For the same molecule, the Cells harvested (B16.BL6 melanoma cells [2]; [17]) was 1.5 × 10^6, the “Cells harvested (percent)” value (B16.BL6 melanoma cells [2]; [17]) was 30% and the Viability (B16.BL6 melanoma cells [2]; [17]) was 80.0%. The Cell concentration (B16.BL6 melanoma cells [2]; [18]) was 2.8 × 10^5 cells/mL, the Cells harvested (B16.BL6 melanoma cells [2]; [18]) was 0.7 × 10^6 and the “Cells harvested (percent)” value (B16.BL6 melanoma cells [2]; [18]) was 14%. For the same molecule, the Viability (B16.BL6 melanoma cells [2]; [18]) was 71.4%, the Cell concentration (B16.BL6 melanoma cells [2]; [19]) was 4.4 × 10^5 cells/mL and the Cells harvested (B16.BL6 melanoma cells [2]; [19]) was 1.1 × 10^6. The “Cells harvested (percent)” value (B16.BL6 melanoma cells [2]; [19]) was 22%, the Viability (B16.BL6 melanoma cells [2]; [19]) was 81.8% and the Cell concentration (B16.BL6 melanoma cells [2]; [20]) was 4.2 × 10^5 cells/mL. The Cells harvested (B16.BL6 melanoma cells [2]; [20]) was 1.1 × 10^6, the “Cells harvested (percent)” value (B16.BL6 melanoma cells [2]; [20]) was 21% and the Viability (B16.BL6 melanoma cells [2]; [20]) was 66.7%. The Cell concentration (B16.BL6 melanoma cells [2]; [21]) was 6.0 × 10^5 cells/mL, the Cells harvested (B16.BL6 melanoma cells [2]; [21]) was 1.5 × 10^6 and the “Cells harvested (percent)” value (B16.BL6 melanoma cells [2]; [21]) was 30%. The Viability (B16.BL6 melanoma cells [2]; [21]) was 60.1%, the Cell concentration (B16.BL6 melanoma cells [2]; [22]) was 4.2 × 10^5 cells/mL and the Cells harvested (B16.BL6 melanoma cells [2]; [22]) was 1.1 × 10^6. The “Cells harvested (percent)” value (B16.BL6 melanoma cells [2]; [22]) was 21% and the Viability (B16.BL6 melanoma cells [2]; [22]) was 57.1%.
